Measured values: ChEMBL document CHEMBL5247644, “Design and Synthesis of Sulfonium Derivatives: A Novel Class of α-Glucosidase Inhibitors with Potent In Vivo Antihyperglycemic Activities” (J Med Chem, 2023)
Each block holds one compound with its values, some of them ahead of it. Activity calls are given as the source filed them. The calls are words filed in the database; no cut-off is given here.

How the values were obtained:
[1] = target: T1, Sucrase-isomaltase, intestinal (Rattus norvegicus, UniProt P23739); assay: Inhibition of sucrase in rat small intestinal brush border membrane vesicles using sucrose as substrate incubated for 30 mins by glucose-oxidase method; assay type: cell membranes, Small intestine, Membrane vesicle
T1 sequence (P23739 1-1013 limits assumed): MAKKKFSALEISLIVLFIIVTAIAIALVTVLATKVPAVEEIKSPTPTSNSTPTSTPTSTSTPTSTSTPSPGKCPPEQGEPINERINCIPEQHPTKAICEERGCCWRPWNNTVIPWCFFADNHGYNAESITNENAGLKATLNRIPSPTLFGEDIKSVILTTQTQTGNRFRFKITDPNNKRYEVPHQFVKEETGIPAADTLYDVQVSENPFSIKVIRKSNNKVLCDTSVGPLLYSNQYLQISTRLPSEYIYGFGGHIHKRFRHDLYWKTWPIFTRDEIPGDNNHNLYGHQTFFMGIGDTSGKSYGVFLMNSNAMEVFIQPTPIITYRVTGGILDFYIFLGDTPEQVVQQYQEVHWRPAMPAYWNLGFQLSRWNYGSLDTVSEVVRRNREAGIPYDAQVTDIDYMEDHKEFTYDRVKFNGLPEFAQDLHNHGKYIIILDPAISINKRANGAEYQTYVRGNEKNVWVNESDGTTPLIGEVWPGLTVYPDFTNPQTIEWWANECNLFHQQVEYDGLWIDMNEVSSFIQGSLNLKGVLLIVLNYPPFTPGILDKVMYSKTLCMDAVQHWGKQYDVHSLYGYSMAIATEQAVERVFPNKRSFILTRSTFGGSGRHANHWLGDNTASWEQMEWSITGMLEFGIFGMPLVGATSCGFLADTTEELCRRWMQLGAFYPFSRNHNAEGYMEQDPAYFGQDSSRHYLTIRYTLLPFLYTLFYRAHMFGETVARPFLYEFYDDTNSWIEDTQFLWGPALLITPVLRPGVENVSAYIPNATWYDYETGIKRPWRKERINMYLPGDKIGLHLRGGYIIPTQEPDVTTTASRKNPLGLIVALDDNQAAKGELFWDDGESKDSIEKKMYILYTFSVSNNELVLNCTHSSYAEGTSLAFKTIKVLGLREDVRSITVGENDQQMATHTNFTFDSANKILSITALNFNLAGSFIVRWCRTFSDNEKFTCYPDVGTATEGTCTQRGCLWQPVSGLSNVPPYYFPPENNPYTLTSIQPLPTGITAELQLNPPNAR
T1 sequence (P23739 1014-1841 limits assumed): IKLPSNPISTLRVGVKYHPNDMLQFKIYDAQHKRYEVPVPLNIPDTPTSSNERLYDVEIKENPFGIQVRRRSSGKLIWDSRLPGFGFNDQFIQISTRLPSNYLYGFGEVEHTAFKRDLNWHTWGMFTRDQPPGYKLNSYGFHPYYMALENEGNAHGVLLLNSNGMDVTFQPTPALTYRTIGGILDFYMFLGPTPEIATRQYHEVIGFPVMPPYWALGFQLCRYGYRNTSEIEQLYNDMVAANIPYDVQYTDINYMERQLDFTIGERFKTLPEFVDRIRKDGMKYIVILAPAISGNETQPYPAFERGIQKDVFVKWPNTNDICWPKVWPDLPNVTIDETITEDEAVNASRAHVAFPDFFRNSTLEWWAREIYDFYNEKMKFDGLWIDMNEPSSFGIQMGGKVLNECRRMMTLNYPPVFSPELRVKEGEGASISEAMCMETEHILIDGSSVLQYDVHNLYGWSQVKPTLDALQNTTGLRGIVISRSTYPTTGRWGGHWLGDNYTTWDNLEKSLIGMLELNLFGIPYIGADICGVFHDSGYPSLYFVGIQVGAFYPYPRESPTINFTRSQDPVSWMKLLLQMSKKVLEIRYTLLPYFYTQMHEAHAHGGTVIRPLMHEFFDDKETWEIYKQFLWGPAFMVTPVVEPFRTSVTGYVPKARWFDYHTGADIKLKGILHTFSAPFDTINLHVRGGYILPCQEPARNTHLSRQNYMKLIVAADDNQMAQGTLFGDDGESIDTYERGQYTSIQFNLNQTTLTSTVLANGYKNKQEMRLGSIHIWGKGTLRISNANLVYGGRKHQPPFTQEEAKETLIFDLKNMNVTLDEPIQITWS

[2] = Inhibition of maltase in rat small intestinal brush border membrane vesicles using maltose as substrate incubated for 30 mins by glucose-oxidase method; assay type: cell membranes, Small intestine, Membrane vesicle
[3] = target: T1, Sucrase-isomaltase, intestinal; assay: Binding affinity to sucrase in rat small intestinal brush border membrane vesicles assessed as inhibition constant using sucrose as substrate incubated for 30 mins by glucose-oxidase method; assay type: cell membranes, Small intestine, Membrane vesicle
Mus musculus [4] = assay: Antihyperglycemic activity in overnight fasted ICR mouse assessed as decrease in blood glucose level at 10 mg/kg, IG administered via tube and measured after 15 mins by sucrose loading test relative to control; assay type: functional; set-up: scale not given: the % may be the effect or the level left; details: 0.25 h
Mus musculus [5] = assay: Antihyperglycemic activity in overnight fasted ICR mouse assessed as decrease in blood glucose level at 10 mg/kg, IG administered via tube and measured after 30 mins by sucrose loading test relative to control; assay type: functional; set-up: scale not given: the % may be the effect or the level left; details: 0.5 h
Mus musculus [6] = assay: Antihyperglycemic activity in overnight fasted ICR mouse assessed as decrease in blood glucose level at 10 mg/kg, IG administered via tube and measured after 60 mins by sucrose loading test relative to control; assay type: functional; set-up: scale not given: the % may be the effect or the level left; details: 1 h
Mus musculus [7] = assay: Antihyperglycemic activity in overnight fasted ICR mouse assessed as decrease in AUC of blood glucose level at 10 mg/kg, IG administered via tube and measured after 15 to 60 mins by sucrose loading test relative to control; assay type: functional; set-up: scale not given: the % may be the effect or the level left; details: time 15-60 min
Mus musculus [8] = assay: Antihyperglycemic activity in overnight fasted ICR mouse assessed as decrease in blood glucose level at 1 mg/kg, IG administered via tube and measured after 15 mins by sucrose loading test relative to control; assay type: functional; set-up: scale not given: the % may be the effect or the level left; details: 0.25 h
Mus musculus [9] = assay: Antihyperglycemic activity in overnight fasted ICR mouse assessed as decrease in blood glucose level at 1 mg/kg, IG administered via tube and measured after 30 mins by sucrose loading test relative to control; assay type: functional; set-up: scale not given: the % may be the effect or the level left; details: 0.5 h
Mus musculus [10] = assay: Antihyperglycemic activity in overnight fasted ICR mouse assessed as decrease in blood glucose level at 1 mg/kg, IG administered via tube and measured after 60 mins by sucrose loading test relative to control; assay type: functional; set-up: scale not given: the % may be the effect or the level left
Mus musculus [11] = assay: Antihyperglycemic activity in overnight fasted ICR mouse assessed as decrease in AUC of blood glucose level at 1 mg/kg, IG administered via tube and measured after 15 to 60 mins by sucrose loading test relative to control; assay type: functional; set-up: scale not given: the % may be the effect or the level left; details: time 15-60 min
Rattus norvegicus [12] = assay: Antihyperglycemic activity in fasted rat assessed as decrease in blood glucose level at 1 mg/kg measured after 15 mins by maltose loading test relative to control; assay type: functional; set-up: scale not given: the % may be the effect or the level left; details: 0.25 h
Rattus norvegicus [13] = assay: Antihyperglycemic activity in fasted rat assessed as decrease in blood glucose level at 1 mg/kg measured after 30 mins by maltose loading test relative to control; assay type: functional; set-up: scale not given: the % may be the effect or the level left; details: 0.5 h
Rattus norvegicus [14] = assay: Antihyperglycemic activity in fasted rat assessed as decrease in blood glucose level at 1 mg/kg measured after 60 mins by maltose loading test relative to control; assay type: functional; set-up: scale not given: the % may be the effect or the level left
Rattus norvegicus [15] = assay: Antihyperglycemic activity in fasted rat assessed as decrease in AUC of blood glucose level at 1 mg/kg measured for 15 to 60 mins by maltose loading test relative to control; assay type: functional; set-up: scale not given: the % may be the effect or the level left; details: time 15-60 min
[16] = target: Sucrase-isomaltase, intestinal (Rattus norvegicus) (UniProt P23739); assay: Potency index, ratio of neoponkoranol IC50 to test compound IC50 for inhibition of sucrase in rat small intestinal brush border membrane vesicles using sucrose as substrate incubated for 30 mins by glucose-oxidase method; assay type: cell membranes; details: Small intestine, Membrane vesicle
Chain of Sucrase-isomaltase, intestinal (Rattus norvegicus) (P23739 1-1013 limits assumed): as the sequence (P23739 1-1013 limits assumed) above
Chain of Sucrase-isomaltase, intestinal (Rattus norvegicus) (P23739 1014-1841 limits assumed): as the sequence (P23739 1014-1841 limits assumed) above

[17] = target: Lysosomal alpha-glucosidase (Rattus norvegicus) (UniProt Q6P7A9); assay: Potency index, ratio of neoponkoranol IC50 to test compound IC50 for inhibition of maltase in rat small intestinal brush border membrane vesicles using maltose as substrate incubated for 30 mins by glucose-oxidase method; assay type: cell membranes; details: Small intestine, Membrane vesicle
Chain of Lysosomal alpha-glucosidase (Rattus norvegicus) (Q6P7A9 whole entry): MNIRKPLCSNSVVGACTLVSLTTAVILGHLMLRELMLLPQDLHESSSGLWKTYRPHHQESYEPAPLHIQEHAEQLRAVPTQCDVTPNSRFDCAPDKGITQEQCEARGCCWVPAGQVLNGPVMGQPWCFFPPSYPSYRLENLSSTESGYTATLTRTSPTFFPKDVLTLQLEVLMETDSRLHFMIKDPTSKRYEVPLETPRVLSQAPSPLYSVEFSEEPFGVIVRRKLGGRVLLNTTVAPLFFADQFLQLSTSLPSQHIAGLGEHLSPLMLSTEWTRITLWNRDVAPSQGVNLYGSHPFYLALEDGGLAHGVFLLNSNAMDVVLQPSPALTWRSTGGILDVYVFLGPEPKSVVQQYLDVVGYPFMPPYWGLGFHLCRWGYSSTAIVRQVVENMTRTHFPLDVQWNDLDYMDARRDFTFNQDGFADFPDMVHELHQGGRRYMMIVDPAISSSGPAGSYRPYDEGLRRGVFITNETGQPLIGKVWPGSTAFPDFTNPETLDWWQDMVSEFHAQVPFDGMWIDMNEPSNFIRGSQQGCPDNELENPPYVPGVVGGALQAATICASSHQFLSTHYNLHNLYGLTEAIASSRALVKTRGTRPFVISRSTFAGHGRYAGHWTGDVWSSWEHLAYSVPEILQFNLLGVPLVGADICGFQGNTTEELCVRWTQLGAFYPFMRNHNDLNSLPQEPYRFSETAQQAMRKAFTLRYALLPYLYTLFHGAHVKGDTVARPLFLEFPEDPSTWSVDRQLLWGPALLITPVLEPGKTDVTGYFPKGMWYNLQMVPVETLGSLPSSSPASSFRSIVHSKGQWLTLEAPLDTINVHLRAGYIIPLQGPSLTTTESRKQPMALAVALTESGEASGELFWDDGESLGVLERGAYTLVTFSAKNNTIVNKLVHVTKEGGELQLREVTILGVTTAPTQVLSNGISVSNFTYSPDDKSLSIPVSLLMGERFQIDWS

[18] = target: Lysosomal alpha-glucosidase (Rattus norvegicus) (UniProt Q6P7A9); assay: Potency index, ratio of voglibose IC50 to test compound IC50 for inhibition of maltase in rat small intestinal brush border membrane vesicles using maltose as substrate incubated for 30 mins by glucose-oxidase method; assay type: cell membranes; details: Small intestine, Membrane vesicle
[19] = target: Lysosomal alpha-glucosidase (Rattus norvegicus) (UniProt Q6P7A9); assay: Potency index, ratio of acarbose IC50 to test compound IC50 for inhibition of maltase in rat small intestinal brush border membrane vesicles using maltose as substrate incubated for 30 mins by glucose-oxidase method; assay type: cell membranes; details: Small intestine, Membrane vesicle
[20] = target: Sucrase-isomaltase, intestinal (Rattus norvegicus) (UniProt P23739); assay: Competitive inhibition of sucrase in rat small intestinal brush border membrane vesicles using sucrose as substrate incubated for 30 mins by Lineweaver-Burk plot analysis; assay type: cell membranes; details: Small intestine, Membrane vesicle
[21] = target: Lysosomal alpha-glucosidase (Rattus norvegicus) (UniProt Q6P7A9); assay: Competitive inhibition of maltase in rat small intestinal brush border membrane vesicles using maltose as substrate incubated for 30 mins by Lineweaver-Burk plot analysis; assay type: cell membranes; details: Small intestine, Membrane vesicle
Mus musculus [22] = assay: Antihyperglycemic activity in overnight fasted ICR mouse assessed as decrease in blood glucose level at 20 mg/kg, IG administered via tube and measured after 15 mins by sucrose loading test relative to control; assay type: functional; set-up: scale not given: the % may be the effect or the level left; details: 0.25 h
Mus musculus [23] = assay: Antihyperglycemic activity in overnight fasted ICR mouse assessed as decrease in blood glucose level at 20 mg/kg, IG administered via tube and measured after 30 mins by sucrose loading test relative to control; assay type: functional; set-up: scale not given: the % may be the effect or the level left; details: 0.5 h
Mus musculus [24] = assay: Antihyperglycemic activity in overnight fasted ICR mouse assessed as decrease in blood glucose level at 20 mg/kg, IG administered via tube and measured after 60 mins by sucrose loading test relative to control; assay type: functional; set-up: scale not given: the % may be the effect or the level left; details: 1 h
Mus musculus [25] = assay: Antihyperglycemic activity in overnight fasted ICR mouse assessed as decrease in AUC of blood glucose level at 20 mg/kg, IG administered via tube and measured after 15 to 60 mins by sucrose loading test relative to control; assay type: functional; set-up: scale not given: the % may be the effect or the level left; details: time 15-60 min

IC50 [1]: 100 nM
IC50 [2]: 200 nM
Ki [3]: 352 nM
Ratio IC50 [16]: 20
Ratio IC50 [17]: 40
Ratio IC50 [18]: 7.5
Ratio IC50 [19]: 16
inhibition [20]: Active
inhibition [21]: Active
SMILES: Cl.O=[N+]([O-])c1ccccc1C1OC[C@@H](O)[C@@H]([C@H](O)C[S@+]2C[C@@H](O)[C@H](O)[C@H]2CO)O1 (stereo partly drawn)
Activity (Mus musculus [4]): 49%
Activity (Mus musculus [5]): 60%
Activity (Mus musculus [6]): 54.6%
Activity (Mus musculus [7]): 50.1%
Activity (Mus musculus [8]): 41.1%
Activity (Mus musculus [9]): 48%
Activity (Mus musculus [10]): 43.9%
Activity (Mus musculus [11]): 38.1%
Activity (Rattus norvegicus [12]): 50%
Activity (Rattus norvegicus [13]): 54.6%
Activity (Rattus norvegicus [14]): 48.3%
Activity (Rattus norvegicus [15]): 45.6%

IC50 [1]: 1900 nM
IC50 [2]: 3100 nM
SMILES: OC[C@@H]1[C@@H](O)[C@H](O)C[S@@+]1C[C@@H](O)[C@H]1OC(c2cccc(Cl)c2)OC[C@H]1O (stereo partly drawn)

IC50 [1]: 3400 nM
IC50 [2]: 6700 nM
SMILES: O=[N+]([O-])c1cccc(C2OC[C@@H](O)[C@@H]([C@H](O)C[S@+]3C[C@@H](O)[C@H](O)[C@H]3CO)O2)c1 (stereo partly drawn)

IC50 [1]: 540 nM
IC50 [2]: 410 nM
Ki [3]: 474 nM
SMILES: OC[C@@H]1[C@@H](O)[C@H](O)C[S@@+]1C[C@@H](O)[C@H]1OC(c2ccccc2Cl)OC[C@H]1O (stereo partly drawn)

IC50 [1]: 2300 nM
IC50 [2]: 3500 nM
SMILES: OC[C@@H]1[C@@H](O)[C@H](O)C[S@@+]1C[C@@H](O)[C@H]1OC(c2ccc(C(F)(F)F)cc2)OC[C@H]1O (stereo partly drawn)

IC50 [1]: 420 nM
IC50 [2]: 830 nM
Ki [3]: 758 nM
Ratio IC50 [16]: 5
Ratio IC50 [17]: 10
SMILES: OC[C@@H]1[C@@H](O)[C@H](O)C[S@@+]1C[C@@H](O)[C@H]1OC(c2ccccc2)OC[C@H]1O (stereo partly drawn)

IC50 [1]: 2300 nM
IC50 [2]: 4000 nM
SMILES: OC[C@@H]1[C@@H](O)[C@H](O)C[S@@+]1C[C@@H](O)[C@H]1OC(c2ccc(Cl)cc2)OC[C@H]1O (stereo partly drawn)

SMILES: C[C@H]1O[C@H](O[C@H]2[C@H](O)[C@@H](O)[C@@H](O[C@H]3[C@H](O)[C@@H](O)C(O)O[C@@H]3CO)O[C@@H]2CO)[C@H](O)[C@@H](O)[C@@H]1N[C@H]1C=C(CO)[C@@H](O)[C@H](O)[C@H]1O (stereo partly drawn) [ACARBOSE]
Activity (Mus musculus [22]): 40.2%
Activity (Mus musculus [23]): 50.9%
Activity (Mus musculus [24]): 45.1%
Activity (Mus musculus [25]): 40%

IC50 [1]: 400 nM
IC50 [2]: 840 nM
Ki [3]: 562 nM
SMILES: OC[C@@H]1[C@@H](O)[C@H](O)C[S@@+]1C[C@@H](O)[C@H]1OC(c2ccccc2F)OC[C@H]1O (stereo partly drawn)

IC50 [1]: 700 nM
IC50 [2]: 1700 nM
SMILES: OC[C@@H]1[C@@H](O)[C@H](O)C[S@@+]1C[C@@H](O)[C@H]1OC(c2cccc(F)c2)OC[C@H]1O (stereo partly drawn)

IC50 [1]: 220 nM
IC50 [2]: 230 nM
Ki [3]: 398 nM
Ratio IC50 [17]: 40
inhibition [20]: Active
inhibition [21]: Active
SMILES: OC[C@@H]1[C@@H](O)[C@H](O)C[S@@+]1C[C@@H](O)[C@H]1OC(c2ccccc2C(F)(F)F)OC[C@H]1O.[Cl-] (stereo partly drawn)
Activity (Mus musculus [4]): 43.5%
Activity (Mus musculus [5]): 56.6%
Activity (Mus musculus [6]): 51%
Activity (Mus musculus [7]): 45.8%
Activity (Mus musculus [8]): 35.1%
Activity (Mus musculus [9]): 47.3%
Activity (Mus musculus [10]): 37.8%
Activity (Mus musculus [11]): 34%
Activity (Rattus norvegicus [12]): 45.7%
Activity (Rattus norvegicus [13]): 48.7%
Activity (Rattus norvegicus [14]): 43.2%
Activity (Rattus norvegicus [15]): 39.7%

IC50 [1]: 1900 nM
IC50 [2]: 7800 nM
SMILES: OC[C@@H]1[C@@H](O)[C@H](O)C[S@@+]1C[C@@H](O)[C@@H](O)[C@@H](O)[C@@H](O)CO
Activity (Mus musculus [4]): 37.5%
Activity (Mus musculus [5]): 48.3%
Activity (Mus musculus [6]): 45.1%
Activity (Mus musculus [7]): 40%
Activity (Mus musculus [8]): 27.8%
Activity (Mus musculus [9]): 39.6%
Activity (Mus musculus [10]): 35.3%
Activity (Mus musculus [11]): 29.6%
Activity (Rattus norvegicus [12]): 35.3%
Activity (Rattus norvegicus [13]): 34.5%
Activity (Rattus norvegicus [14]): 19.8%
Activity (Rattus norvegicus [15]): 23%

IC50 [1]: 300 nM
IC50 [2]: 1500 nM
SMILES: OC[C@@H]1[C@@H](O)[C@H](O)C[S@@+]1C[C@@H](O)[C@H]1OC(c2cccc(C(F)(F)F)c2)OC[C@H]1O (stereo partly drawn)

IC50 [1]: 2500 nM
IC50 [2]: 3000 nM
SMILES: OC[C@@H]1[C@@H](O)[C@H](O)C[S@@+]1C[C@@H](O)[C@H]1OC(c2ccc(F)cc2)OC[C@H]1O (stereo partly drawn)

SMILES: OCC(CO)N[C@H]1C[C@](O)(CO)[C@@H](O)[C@H](O)[C@H]1O [VOGLIBOSE]
Activity (Rattus norvegicus [12]): 50%
Activity (Rattus norvegicus [13]): 55.1%
Activity (Rattus norvegicus [14]): 43.3%
Activity (Rattus norvegicus [15]): 41.1%

IC50 [1]: 4700 nM
IC50 [2]: 4500 nM
SMILES: O=[N+]([O-])c1ccc(C2OC[C@@H](O)[C@@H]([C@H](O)C[S@+]3C[C@@H](O)[C@H](O)[C@H]3CO)O2)cc1 (stereo partly drawn)
